What follows are molecules tested against T1, recombinant human Estrogen Receptor alpha ligand binding domain, residues 307-554 (ER alpha-LBD (GST)) (Homo sapiens, UniProt P03372) (assay: ERα binding assay (LanthaScreen TR-FRET competition)). Details: TR-FRET competition with Fluormone ES2 tracer, 4 hours at room temperature; single experiment or average of two or more.
T1 construct: made in house
T1 sequence (P03372 307-554): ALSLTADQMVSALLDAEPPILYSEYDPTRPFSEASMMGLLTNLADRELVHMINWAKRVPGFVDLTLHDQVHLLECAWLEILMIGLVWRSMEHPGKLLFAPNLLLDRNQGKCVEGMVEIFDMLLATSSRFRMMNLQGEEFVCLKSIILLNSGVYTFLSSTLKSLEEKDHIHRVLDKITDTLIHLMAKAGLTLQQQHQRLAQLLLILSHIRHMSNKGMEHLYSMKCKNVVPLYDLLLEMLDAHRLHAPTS

| SMILES | IC50 [pM] |
| --- | --- |
| Cc1ncsc1-c1ccc(CNC(=O)[C@@H]2C[C@@H](O)CN2C(=O)[C@@H](NC(=O)C(F)(F)OCCCCCCOc2cc(F)c([C@@H]3c4[nH]c5ccccc5c4C[C@@H](C)N3CC(C)(C)F)c(F)c2)C(C)(C)C)cc1 [Example 116, (2S,4R)-1-((S)-2-(2-((6-(3,5-Difluoro-4-((1R,3R)-2-(2-fluoro-2-methylpropyl)-3-methyl-2,3,4,9-tetrahydro-1H-pyrido[3,4-b]indol-1-yl)phenoxy)hexyl)oxy)-2,2-difluoroacetamido)-3,3-dimethylbutanoyl)-4-hydroxy-N-(4-(4-methylthiazol-5-yl)benzyl)pyrrolidine-2-carboxamide] | 1000 |
| Cc1ncsc1-c1ccc(CNC(=O)[C@@H]2C[C@@H](O)CN2C(=O)[C@@H](NC(=O)COCCCOCCCCOc2cc(F)c([C@@H]3c4[nH]c5ccccc5c4C[C@@H](C)N3CC(C)(C)F)c(F)c2)C(C)(C)C)cc1 [Example 129, (2S,4R)-1-((S)-2-(2-(3-(4-(3,5-Difluoro-4-((1R,3R)-2-(2-fluoro-2-methylpropyl)-3-methyl-2,3,4,9-tetrahydro-1H-pyrido[3,4-b]indol-1-yl)phenoxy)butoxy)propoxy)acetamido)-3,3-dimethylbutanoyl)-4-hydroxy-N-(4-(4-methylthiazol-5-yl)benzyl)pyrrolidine-2-carboxamide] | 1000 |
| Cc1ncsc1-c1ccc([C@H](C)NC(=O)[C@@H]2C[C@@H](O)CN2C(=O)[C@@H](NC(=O)COCCCOCCCOc2cc(F)c([C@@H]3c4[nH]c5ccccc5c4C[C@@H](C)N3CC(C)(C)F)c(F)c2)C(C)(C)C)cc1 [Example 152, (2S,4R)-1-((S)-2-(2-(3-(3-(3,5-Difluoro-4-((1R,3R)-2-(2-fluoro-2-methylpropyl)-3-methyl-2,3,4,9-tetrahydro-1H-pyrido[3,4-b]indol-1-yl)phenoxy)propoxy)propoxy)acetamido)-3,3-dimethylbutanoyl)-4-hydroxy-N—((S)-1-(4-(4-methylthiazol-5-yl)phenyl)ethyl)pyrrolidine-2-carboxamide] | 500 |
| Cc1ncsc1-c1ccc(CNC(=O)[C@@H]2C[C@@H](O)CN2C(=O)[C@@H](NC(=O)COCCc2ccc(COc3cc(F)c([C@@H]4c5[nH]c6ccccc6c5C[C@@H](C)N4CC(C)(C)F)c(F)c3)cc2)C(C)(C)C)cc1 [Example 53, (2S,4R)-1-((S)-2-(2-(4-((3,5-difluoro-4-((1R,3R)-2-(2-fluoro-2-methylpropyl)-3-methyl-2,3,4,9-tetrahydro-1H-pyrido[3,4-b]indol-1-yl)phenoxy)methyl)phenethoxy)acetamido)-3,3-dimethylbutanoyl)-4-hydroxy-N-(4-(4-methylthiazol-5-yl)benzyl)pyrrolidine-2-carboxamide] | 1000 |
| Cc1ncsc1-c1ccc(CNC(=O)[C@@H]2C[C@@H](O)CN2C(=O)[C@@H](NC(=O)CCCCCCCOCCOc2cc(F)c([C@@H]3c4[nH]c5ccccc5c4C[C@@H](C)N3CC(C)(C)F)c(F)c2)C(C)(C)C)cc1 [Example 111, (2S,4R)-1-((S)-2-(8-(2-(3,5-Difluoro-4-((1R,3R)-2-(2-fluoro-2-methylpropyl)-3-methyl-2,3,4,9-tetrahydro-1H-pyrido[3,4-b]indol-1-yl)phenoxy)ethoxy)octanamido)-3,3-dimethylbutanoyl)-4-hydroxy-N-(4-(4-methylthiazol-5-yl)benzyl)pyrrolidine-2-carboxamide] | 600 |
| Cc1ncsc1-c1ccc(CNC(=O)[C@@H]2C[C@@H](O)CN2C(=O)[C@@H](NC(=O)COCCCCOc2cc(F)c([C@@H]3c4[nH]c5ccccc5c4C[C@@H](C)N3CC(C)(C)F)c(F)c2)C(C)(C)C)cc1 [Example 14, (2S,4R)-1-((S)-2-(2-(4-(3,5-Difluoro-4-((1R,3R)-2-(2-fluoro-2-methylpropyl)-3-methyl-2,3,4,9-tetrahydro-1H-pyrido[3,4-b]indol-1-yl)phenoxy)butoxy)acetamido)-3,3-dimethylbutanoyl)-4-hydroxy-N-(4-(4-methylthiazol-5-yl)benzyl)pyrrolidine-2-carboxamide] | 900 |
| Cc1ncsc1-c1ccc(CNC(=O)[C@@H]2C[C@@H](O)CN2C(=O)[C@@H](NC(=O)COCCCCCCCCOc2ccc([C@@H]3c4[nH]c5ccccc5c4C[C@@H](C)N3CC(F)F)nc2)C(C)(C)C)cc1 [Example 13, (2S,4R)-1-((S)-2-(2-((8-((6-((1S,3R)-2-(2,2-Difluoroethyl)-3-methyl-2,3,4,9-tetrahydro-1H-pyrido[3,4-b]indol-1-yl)pyridin-3-yl)oxy)octyl)oxy)acetamido)-3,3-dimethylbutanoyl)-4-hydroxy-N-(4-(4-methylthiazol-5-yl)benzyl)pyrrolidine-2-carboxamide] | 5000 |
| Cc1ncsc1-c1ccc(CNC(=O)[C@@H]2C[C@@H](O)CN2C(=O)[C@@H](NC(=O)COCCCCOCCOc2cc(F)c([C@@H]3c4[nH]c5ccccc5c4C[C@@H](C)N3CC(C)(C)F)c(F)c2)C(C)(C)C)cc1 [Example 16, (2S,4R)-1-((S)-2-(2-(4-(2-(3,5-Difluoro-4-((1R,3R)-2-(2-fluoro-2-methylpropyl)-3-methyl-2,3,4,9-tetrahydro-1H-pyrido[3,4-b]indol-1-yl)phenoxy)ethoxy)butoxy)acetamido)-3,3-dimethylbutanoyl)-4-hydroxy-N-(4-(4-methylthiazol-5-yl)benzyl)pyrrolidine-2-carboxamide] | 800 |
| Cc1ncsc1-c1ccc(CNC(=O)[C@@H]2C[C@@H](O)CN2C(=O)[C@@H](NC(=O)COCc2ccc(C(=O)Nc3cc(F)c([C@@H]4c5[nH]c6ccccc6c5C[C@@H](C)N4CC(C)(C)F)c(F)c3)nc2)C(C)(C)C)cc1 [Example 144, N-(3,5-Difluoro-4-((1R,3R)-2-(2-fluoro-2-methylpropyl)-3-methyl-2,3,4,9-tetrahydro-1H-pyrido[3,4-b]indol-1-yl)phenyl)-5-((2-(((S)-1-((2S,4R)-4-hydroxy-2-((4-(4-methylthiazol-5-yl)benzyl)carbamoyl)pyrrolidin-1-yl)-3,3-dimethyl-1-oxobutan-2-yl)amino)-2-oxoethoxy)methyl)picolinamide] | 1300 |
| Cc1ncsc1-c1ccc([C@H](C)NC(=O)[C@@H]2C[C@@H](O)CN2C(=O)[C@@H](NC(=O)COCCCCCOc2cc(F)c([C@@H]3c4[nH]c5ccccc5c4C[C@@H](C)N3CC(C)(C)F)c(F)c2)C(C)(C)C)cc1 [Example 28, (2S,4R)-1-((S)-2-(2-((5-(3,5-Difluoro-4-((1R,3R)-2-(2-fluoro-2-methylpropyl)-3-methyl-2,3,4,9-tetrahydro-1H-pyrido[3,4-b]indol-1-yl)phenoxy)pentyl)oxy)acetamido)-3,3-dimethylbutanoyl)-4-hydroxy-N—((S)-1-(4-(4-methylthiazol-5-yl)phenyl)ethyl)pyrrolidine-2-carboxamide] | 800 |
| Cc1ncsc1-c1ccc(CNC(=O)[C@@H]2C[C@@H](O)CN2C(=O)[C@@H](NC(=O)COCCCCCCCOc2ccc([C@@H]3c4[nH]c5ccccc5c4C[C@@H](C)N3CC(F)F)nc2)C(C)(C)C)cc1 [Example 6, (2S,4R)-1-((S)-2-(2-((7-((6-((1S,3R)-2-(2,2-Difluoroethyl)-3-methyl-2,3,4,9-tetrahydro-1H-pyrido[3,4-b]indol-1-yl)pyridin-3-yl)oxy)heptyl)oxy)acetamido)-3,3-dimethylbutanoyl)-4-hydroxy-N-(4-(4-methylthiazol-5-yl)benzyl)pyrrolidine-2-carboxamide] | 4200 |
| Cc1ncsc1-c1ccc([C@@H](CN(C)C)NC(=O)[C@@H]2C[C@@H](O)CN2C(=O)[C@@H](NC(=O)COCCOCCOCCOc2cc(F)c([C@@H]3c4[nH]c5ccccc5c4C[C@@H](C)N3CC(C)(C)F)c(F)c2)C(C)(C)C)cc1 [Example 107, (2S,4R)-1-[(2S)-2-[[2-[2-[2-[2-[3,5-Difluoro-4-[(1R,3R)-2-(2-fluoro-2-methyl-propyl)-3-methyl-1,3,4,9-tetrahydropyrido[3,4-b]indol-1-yl]phenoxy]ethoxy]ethoxy]ethoxy]acetyl]amino]-3,3-dimethyl-butanoyl]-N-[(1S)-2-(dimethylamino)-1-[4-(4-methylthiazol-5-yl)phenyl]ethyl]-4-hydroxy-pyrrolidine-2-carboxamide] | 4000 |
| Cc1ncsc1-c1ccc(CNC(=O)[C@@H]2C[C@@H](O)CN2C(=O)[C@@H](NC(=O)COCCOCCCCCOc2cc(F)c([C@@H]3c4[nH]c5ccccc5c4C[C@@H](C)N3CC(C)(F)F)c(F)c2)C(C)(C)C)cc1 [Example 166, (2S,4R)-1-((S)-2-(2-(2-((5-(4-((1R,3R)-2-(2,2-Difluoropropyl)-3-methyl-2,3,4,9-tetrahydro-1H-pyrido[3,4-b]indol-1-yl)-3,5-difluorophenoxy)pentyl)oxy)ethoxy)acetamido)-3,3-dimethylbutanoyl)-4-hydroxy-N-(4-(4-methylthiazol-5-yl)benzyl)pyrrolidine-2-carboxamide] | 800 |
| Cc1ncsc1-c1ccc(CNC(=O)[C@@H]2C[C@@H](O)CN2C(=O)[C@@H](NC(=O)COCc2cccc(COc3cc(F)c([C@@H]4c5[nH]c6ccccc6c5C[C@@H](C)N4CC(C)(C)F)c(F)c3)n2)C(C)(C)C)cc1 [Example 132, (2S,4R)-1-((S)-2-(2-((6-((3,5-Difluoro-4-((1R,3R)-2-(2-fluoro-2-methylpropyl)-3-methyl-2,3,4,9-tetrahydro-1H-pyrido[3,4-b]indol-1-yl)phenoxy)methyl)pyridin-2-yl)methoxy)acetamido)-3,3-dimethylbutanoyl)-4-hydroxy-N-(4-(4-methylthiazol-5-yl)benzyl)pyrrolidine-2-carboxamide] | 500 |

— US10519152B2, “Compounds and their use in treating cancer” (AstraZeneca AB, priority 2017, dated 2019)
